The values below come from patent US20220289719A1, “HETEROCYCLIC COMPOUNDS AS MNK INHIBITORS” (NANJING INNOCARE PHARMA TECH CO., LTD., priority 2017, published 2022).

Each structure is given as a SMILES string. Structures can show the parent of a compound that is named as a salt.

By IC50 is commonly meant the concentration at which inhibition is half-maximal.

For experiment [1], the target named is T1, Human recombinant full-length MNK1 protein (Homo sapiens, UniProt Q9BUB5).
T1 construct: Human recombinant full-length MNK1 protein; purchased Thermo PR9138A
T1 sequence (Q9BUB5 whole entry): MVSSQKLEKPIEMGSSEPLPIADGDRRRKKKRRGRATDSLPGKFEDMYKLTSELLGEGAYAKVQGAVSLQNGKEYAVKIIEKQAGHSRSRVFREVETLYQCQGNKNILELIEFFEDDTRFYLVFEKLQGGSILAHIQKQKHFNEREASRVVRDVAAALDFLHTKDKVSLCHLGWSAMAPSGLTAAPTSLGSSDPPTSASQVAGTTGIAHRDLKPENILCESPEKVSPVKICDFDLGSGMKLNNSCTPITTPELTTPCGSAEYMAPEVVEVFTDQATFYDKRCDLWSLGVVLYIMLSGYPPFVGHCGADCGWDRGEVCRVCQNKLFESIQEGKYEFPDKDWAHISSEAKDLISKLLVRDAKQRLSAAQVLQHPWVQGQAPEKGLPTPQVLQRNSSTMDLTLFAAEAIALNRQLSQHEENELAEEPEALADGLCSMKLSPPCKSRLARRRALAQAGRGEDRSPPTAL
Briefly: MNK1 inhibitory activity assay (ADP-Glo in vitro kinase assay). Format: biochemical. Conditions: 10 concentration points. As for the experimental part:
MNK1 Inhibitory Activity Assay: Evaluation of the effects of compounds of the invention on […] (MNK1) activity using in vitro kinase assays. The experimental methods are summarized as follows: The in vitro activity of MNK1 was determined by measuring the level of ADP produced in the kinase reaction using the ADP-Glo Kinase Assay Kit. The reaction buffer consisted of the following components: 50 mM HEPES, pH 7.5, 10 mM MgCl2, 1 mM EGTA, 0.01% Brij35. Human recombinant full-length MNK1 protein (Thermo, Cat. No. PR9138A) was diluted with a reaction buffer to a 3.13 ng/uL kinase solution. The substrate reaction solution consisted of a substrate diluted to 0.75 mg/ml in reaction buffer ([…], available from […] Domestic Company), 2250 uM ATP, the ADP-Glo reagent and kinase assay solution from Promega kit (Promega, V9102). […] If the compound IC50 value is very low, the initial concentration of the compound can be lowered. To a 384-well assay plate (Thermo, Cat. No. 264706) were added 1 uL of compound solution and 2 uL of MNK1 kinase solution. The mixture was mixed well and incubated for 30 minutes at room temperature; then 2 uL of substrate reaction solution was added, the reaction mixture was incubated for 120 minutes at room temperature. The reaction was terminated after an equal volume of 5uLADP-Glo solution was added, and the remaining ATP was completely consumed. After mixing for 60 minutes at room temperature, 10 ul of the kinase assay solution was added, and the mixture was uniformly mixed, and allowed to stand at room temperature for 40 minutes in the dark. The detection solution converts ADP into new ATP through coupled luciferase/luciferin, and ATP is converted into optical signal by Ultr-GloTM luciferase, which can be detected by Envision. The intensity of the light signal is proportional correlated with the amount of ADP produced in the kinase reaction, therefore, the activity of MNK1 kinase can be determined. In this experiment, the group without protein was used as a negative control (100% inhibition). The group with protein but without compounds was used as a positive control (0% inhibition).

In experiment [2] the test system is MV-4-11 cells. Briefly: MV-4-11 cell proliferation inhibition assay (CellTiter-Glo luminescent cell viability). Format: cell-based. Conditions: Homo sapiens, MV4-11, 120 hours, CTG readout, 8 concentration points. As for the experimental part:
MV-4-11 Cell Proliferation Inhibition Assay:
The effect of the compounds of the present invention on the proliferation of MV-4-11 cells was evaluated using a luminescent cell viability assay.
The experimental methods are summarized as follows:
The cell proliferation status of MV-4-11 was detected using the CellTilter-Glo (CTG) assay kit: the luminescence signal generated in the assay is proportional to the number of viable cells in the culture medium by using a unique, stable luciferase to detect viable cell metabolism indicator ATP.
CellTilter-Glo reagent (Promega, G7572) consists of CellTilter-Glo lyophilized powder and ellTilter-Glo buffer, which can be used to dissolve the lyophilized powder into the buffer.
MV-4-11 cells (ATCC #CRL-9591, purchased from Nanjing Kezhen, item number CBP60522) were cultured in IMDM complete medium (Thermofisher, 12440053) containing 10% FBS (GBICO, 10099-141) and 100 units/ml streptomycin mixture (Thermofisher, 15140122). when the cells coverage rearched 80-90% in the culture container, dilute and plant with 0.25% trypsin (including EDTA) (Thermofisher, 25200056) in a white 384-well plate (Thermofisher, 164610), 400 cells per well (36 μl […] complete medium), then 384-well plates were incubated overnight (18-20 hours) in a 37° C., % CO2 incubator.
Compounds were solubilized to 10 mM in 100% DMSO, then sequentially diluted in 4-fold with DMSO to a minimum concentration of […], and each concentration was diluted 50-fold with FBS-free IMDM medium. If the compound IC50 value is very low, the initial concentration of the compound can be lowered. 4 μl of the diluted IMDM compound was added to each well and mixed gently by centrifugation. The GI50 (50% Growth Inhibition) of the compounds was determined in this experiment, including the T0 group before the cell proliferation (including the T0 positive and T0 negative control groups), and the T5 group after 120 hours of cell proliferation (containing the T5 positive and T5 negative control groups).). T0 represents the number of cells before cell proliferation before compound addition, including positive control: the group with the addition of cells and 0.2% DMSO was used as the positive control. The group with medium alone was used as the negative control, T0 group before the addition of compound will be used for CTG test. […] Gently shake for 5 minutes to ensure sufficient cell lysis, leave for 10 minutes to stabilize the luminescence signal, and then read the luminescence signal with EnVision (Perkin Elmer).
The inhibition of MV-4-11 cell proliferation of the compounds was calculated by the following formula: […]
The IC50 value of the compound was calculated from the 8 concentration points by XLfit (ID Business Solutions Ltd., UK) software using the following formula: […]

In the case of `COc1c(Nc2cc(Nc3ccccn3)ncn2)ccc2c1CNC2=O` [Compound 68, 5-((6-(Pyridin-2-ylamino)pyrimidin-4-yl)amino)-4-methoxyisodihydroindol-1-one], the IC50 in experiment [1] amounted to 0.0082 µM; in experiment [2], 0.295 µM.

Regarding `COc1c(Nc2cc(NC(=O)C3CC3)ncn2)ccc2c1CNC2=O` [Compound 67, 5-((6-Cyclopropanamidopyrimidin-4-yl)amino)-4-methoxyisodihydroindole-1-one], the IC50 is 0.0027 µM in experiment [1] and 0.483 µM in experiment [2].

Regarding `COc1cc2[nH]ncc2cc1Nc1ncnc(N)c1C1=CCC(C(=O)N(C)C)CC1` (centres unmarked) [Compound 34, 4-(4-Amino-6-((6-methoxy-1H-indazol-5-yl)amino)pyrimidin-5-yl)-N,N-dimethylcyclohex-3-ene-1-carboxamide formate], the IC50 in experiment [1] is 0.45 µM.

With `COc1cc2[nH]ncc2cc1Nc1ncnc(N)c1C#N` [Compound 42, 5-((6-Amino-5-cyanopyrimidin-4-yl)amino)-6-methoxy-1H-indazole], the IC50 in experiment [1] turned out to be 0.6 µM.

As to `COc1c(Nc2cc(Nc3cnccn3)ncn2)ccc2c1CNC2=O` [Compound 84, 5-((6-(Pyrazin-2-ylamino)pyrimidin-4-yl)amino)-4-methoxyisodihydroindol-1-one formate], the IC50 in experiment [1] was found to be 0.005 µM; in experiment [2] it was 0.278 µM.

For `COc1cn2nccc2cc1Nc1cc(NC(=O)C2CC2)ncn1` [Compound 63, N-(6-((6-Methoxypyrazolo[1,5-a]pyridin-5-yl)amino)pyrimidin-4-yl)cyclopropanecarboxamide], in experiment [1], the IC50 came to 0.0971 µM.

In the case of `CCOC(=O)c1c(NC(C)=O)ncnc1Nc1cc2cn[nH]c2cc1OC` [Compound 38, 5-((6-(Acetylamino)-5-ethoxycarbonylpyrimidin-4-yl)amino)-6-methoxy-1H-indazole], in experiment [1], the IC50 worked out at 0.0119 µM.

Consider `COc1cc2[nH]ncc2cc1Nc1cc(Nc2ccc(Cl)cn2)ncn1` [Compound 24, 5-(6-((5-Chloropyridin-2-yl)amino)pyrimidin-4-ylamino)-6-methoxy-1H-indazole formate], for which the IC50 in experiment [1] was 0.0422 µM.

In the case of `COc1cc2[nH]ncc2cc1Nc1ncnc(N)c1C` [Compound 47, 5-((6-Amino-5-methylpyrimidin-4-yl)amino)-6-methoxy-1H-indazole], the IC50 in experiment [1] was found to be 0.0791 µM.

Take `COc1cc(Nc2cc3cn[nH]c3cc2OC)ncn1` [Compound 51, 5-(6-Methoxypyrimidin-4-yl) amino)-6-methoxy-1H-indazole formate]: in experiment [1], the IC50 was found to be 0.197 µM.

As for `COc1cc2[nH]ncc2cc1Nc1ncnc2[nH]cnc12` [Compound 58, N-(6-Methoxy-1H-indazol-5-yl)-purin-6-amine], the IC50 in experiment [1] was 0.0061 µM.

For the compound `COc1cc2[nH]ncc2cc1Nc1cc(NC(=O)C2CC2)ncn1` [Compound 4, 5-(6-Cyclopropionamidopyrimidin-4-ylamino)-6-methoxy-1H-indazole], the half-maximal inhibitory concentration (IC50) was determined as 0.00145 µM in experiment [1] and 0.301 µM in experiment [2].

On to `CC(C)Oc1cc2[nH]ncc2cc1Nc1cc(NC(=O)C2CC2)ncn1` [Compound 7, 5-(6-cyclopropionamidopyrimidin-4-ylamino)-6-isopropoxy-1H-indazole formate], for which, in experiment [1], the IC50 was determined as 0.0449 µM.

Take `COc1c(Nc2ncnc3[nH]ncc23)ccc2c1CNC2=O` [Compound 81, 5-((1H-Pyrazolo[3,4-d]pyrimidin-4-yl)amino)-4-methoxyisoindolin-1-one]: in experiment [1], the IC50 was 0.103 µM.

Take `COc1cc2[nH]ncc2cc1Nc1ncncc1OC` [Compound 52]: the IC50 in experiment [1] is 0.0144 µM.

As to `COc1cc2c(cnn2C(=O)OC(C)(C)C)cc1Nc1cc(NC(=O)C2CC2)ncn1` [Compound 3, 1-tert-Butoxycarbonyl-5-(6-cyclopropionamidopyrimidin-4-ylamino)-6-methoxyindazole], the IC50 in experiment [1] turned out to be 0.0113 µM.
